According to paper PMC4104029, “Mechanism of Action of Compound-13: An α1-Selective Small Molecule Activator of AMPK” (Chemistry & Biology, 2014):

Key:
[1] = system: LKB1−/− mouse embryonic fibroblasts; experiment: AMPK and ACC phosphorylation in LKB1-null fibroblasts; assay type: cell-based; details: 1 hr; AICAR 2 mM
Procedure: AICAR (0.5 mM) was included as a positive control. Cell lysates were analyzed using western blotting with the indicated antibodies. (B) AMPKα1 or AMPKα2 complexes were immunoprecipitated from hepatocyte extracts prepared as described in (A) and assayed for kinase activity using 0.2 mM AMARA and 0.1 mM ATP. Results are expressed as the mean Pi incorporated in picomoles per minute-milligram ± SD. (C) Hepatocytes were stimulated with 30 μM C13 for the indicated times prior to harvesting, with AICAR (0.5 mM, 1 hr) as positive control. Lysates were analyzed using western blotting with the indicated antibodies. (D) Mouse hepatocytes were treated with the indicated compounds for 1 hr, and adenine nucleotide ratios were determined using capillary electrophoresis of perchloric acid extracts. […] Lysates were analyzed using western blotting with the indicated antibodies. (F) Wild-type (LKB1^+/+) or LKB1-null (LKB1^−/−) mouse embryonic fibroblasts were incubated with the indicated concentrations of C13 for 1 hr. AICAR (2 mM) was included as a positive control. Lysates were analyzed using western blotting with the indicated antibodies.

[2] = system: primary mouse hepatocytes; experiment: Fatty acid esterification, [3H]palmitic acid incorporation into triglycerides; assay type: cell-based; details: 30 min treatment, then 60 min labeling
Procedure: (§1) Figure 5 C13 Inhibits Lipid Synthesis and Fatty Acid Esterification in Mouse Hepatocytes in an AMPK-Dependent Manner (A) Mouse hepatocytes were treated with the indicated concentrations of C13 and labeled with [1-^14C]acetate for 3 hr. A769662 (100 μM) and AICAR (0.5 mM) were included as positive controls. Rates of fatty acid and sterol synthesis were estimated by incorporation into saponifiable and nonsaponifiable lipids. Results are expressed as the mean acetate incorporated in micromoles per gram-hour ± SD and are representative of two independent experiments. (B) Mouse hepatocytes were treated with the indicated compounds for 30 min and labeled with media containing 0.5 mM palmitic acid (1 mCi⋅mmol^−1 [9,10-^3H]palmitic acid) for an additional 60 min. Incorporation into triglyceride was determined as described in Experimental Procedures and results are expressed as palmitate incorporated in micromoles per gram-hour ± SD and are representative of three independent experiments. […] Results are expressed as percentage WT vehicle and represent the mean ± SD for three independent experiments. […]
Fatty acid esterification was determined by labeling primary hepatocytes with [9,10-^3H(N)]palmitate. […] Lipids were stained with iodine vapor and triglyceride eluted from TLC scrapings with 1:1 ethanol:Triton X-100, and the incorporation of [^3H] was determined by scintillation counting.

[3] = system: AMPK-KO (AMPKα1−/− -α2−/−) hepatocytes; experiment: Lipid synthesis, [1-14C]acetate incorporation; assay type: cell-based, mouse
Procedure: as §1, with “(B) Mouse hepatocytes were treated with the indicated compounds for 30 min and labeled with media containing 0.5 mM palmitic acid (1 mCi⋅mmol^−1 [9,10-^3H]palmitic acid) for an additional 60 min.” left out
Lipid synthesis was determined by labeling adherent cultures of primary hepatocytes with [1-^14C]acetate. […] Lipogenesis in hepatocytes from AMPKβ1/β2-KO mice was determined in media containing [^3H]acetate (0.2 mCi⋅mmol^−1). After 4 hr labeling, total lipids were extracted using the method of [Bligh and Dyer (1959)], and incorporated [^3H] was determined by scintillation counting. The results are expressed as micromoles acetate incorporated per gram-hour.

## CC(C)C(=O)OCOP(=O)(OCOC(=O)C(C)C)c1ccc(C2=NOC(=O)C2)o1 [Compound C13]
[1]
  compound-induced phosphorylation of AMPK and ACC: abolished
[2]
  fatty acid esterification: inhibited
[3]
  anti-lipogenic effect: resistant
[3]; highest concentrations of C13
  impairment of lipogenesis: ≈ 20%
